This note sets out measurements from patent publication US20120129769A1, “ORALLY ADMINISTERABLE PHARMACEUTICAL PREPARATION CONTAINING INSULIN” (priority 2009, published 2012).

Data set [1] can be described thus: Blood sugar after oral (feeding probe) insulin with or without ε-amino-caproic acid in starved rats (Example 1). The data set is classed as in vivo, Male Wistar rats. The note with it: n=4. How it is done: (§1) Male Wistar rats (Charles-River Laboratories, Budapest, Hungary) were used for the experiments. Before the experiment the animals were starved for 16 hours. The experiments started between 8 and 9 h in the morning. 2×6 groups were formed in a random manner, with 4 animals by group. The animals were pretreated through a feeding probe according to the followings: group 1: with 1 g/kg of ε-amino-caproic acid; group 2: with 0.1 U/kg of insulin; group 3: with 0.1 U/kg of insulin and 1 g/kg of ε-amino-caproic acid; group 4: with 1.0 U/kg of insulin; group 5: with 1.0 U/kg of insulin and 1 g/kg of ε-amino-caproic acid; and group 6: with a solvent.

A short description of data set [2]: Plasma insulin after oral (feeding probe) insulin with or without ε-amino-caproic acid in starved rats (Example 1). The class given is in vivo, Male Wistar rats. The note with it: n=4. The method, then:
as §1

The nature of data set [3]: Blood sugar (glucose oxidase method) after intraduodenal insulin-acepramin mixture with standard casein (Example 2). The class given is in vivo, male Wistar rats. The note with it: mean±S.D., n=8. An excerpt: (§2) Data: mean±S.D. with n=8 by group. Statistics: t-test with Bonferroni correction, after ANOVA.
Data set [4] in a line: Plasma insulin immunoreactivity (radioimmunoassay) after intraduodenal insulin-acepramin mixture with standard casein (Example 2). To be noted: mean±S.D., n=8. How it is done: Healthy male Wistar rats (230-250 g) were given an ε-amino-caproic acid—human recombinant insulin mixture with standard casein intraduodenally. The endpoint of the measurement was the blood sugar measured with the glucose oxidase method, and the plasma insulin immunoreactivity measured with radioimmunoassay 15 and 60 minutes after the administration of the insulin-acepramin formulation (aqueous suspension).
as §2

For a further data set, the target named is α-chymotrypsin (Bos taurus, UniProt P00766). Nature of the data set: In vitro stability of insulin in the presence of a protein degrading enzyme (reverse-phase HPLC). The note with it: after 120 minutes; insulin 100 μM, α-chymotrypsin 1.5 μg/10 μl; FIG. 1. The data set is classed as in vitro ADME. The method, then: FIG. 1: Insulin (100 μM; native) stability in the presence of an equivalent quantity of insulin/ε-amino-caproic acid (acepramin, Sigma, MO) in a solution containing α-chymotrypsin (1.5 μg/10 μl).
In vitro stability means the biodegradation of a primitive formulation of the insulin-acepramin mixture in the presence of a protein degrading enzyme, as compared to native insulin (results of reverse-phase HPLC tests).

Where [5] appears, read: 15-minute values, insulin 0.1 IU/kg (combination: + 1 g/kg ε-amino-caproic acid).
[6] abbreviates: 15-minute values, insulin 1.0 IU/kg (combination: + 1 g/kg ε-amino-caproic acid).
Setting [7] is: 60-minute values, insulin 0.1 IU/kg (combination: + 1 g/kg ε-amino-caproic acid).
[8] abbreviates: 60-minute values, insulin 1.0 IU/kg (combination: + 1 g/kg ε-amino-caproic acid).

For “insulin: biotechnologically produced human recombinant insulin, given alone (native, unformulated)”, the Blood sugar in data set [1] (setting [5]) turned out to be 5.96 ± 0.21 mmol/L; in data set [1] (setting [6]), 5.77 ± 0.22 mmol/L; in data set [1] (setting [7]), 4.97 ± 0.40 mmol/L; in data set [1] (setting [8]), 4.67 ± 0.41 mmol/L; in data set [3] (15th minute, insulin 0.1 IU/kg (combination: + 100 mg/kg Acepramin), standard casein), 7.9 ± 0.92 mmol/L; in data set [3] (15th minute, insulin 1.0 IU/kg (combination: + 100 mg/kg ε-amino-caproic acid), standard casein), 7.7 ± 2.31 mmol/L. The Blood sugar in data set [3] (60th minute, insulin 0.1 IU/kg (combination: + 100 mg/kg ε-amino-caproic acid), standard casein) was 7.9 ± 0.83 mmol/L; in data set [3] (60th minute, insulin 1.0 IU/kg (combination: + 100 mg/kg ε-amino-caproic acid), standard casein), 6.9 ± 0.62 mmol/L. Moreover, the Plasma insulin amounted to 10.75 ± 2.21 μU/ml in data set [2] (setting [5]); 38.25 ± 6.95 μU/ml in data set [2] (setting [6]); 10.8 ± 1.68 μU/ml in data set [2] (setting [7]); 23.87 ± 4.05 μU/ml in data set [2] (setting [8]); 14.4 ± 1.51 μU/ml in data set [4] (15th minute, insulin 0.1 IU/kg (combination: + 100 mg/kg Acepramin)); 27.5 ± 3.95 μU/ml in data set [4] (15th minute, insulin 1.0 IU/kg (combination: + 100 mg/kg ε-amino-caproic acid)). Besides, the Plasma insulin in data set [4] (60th minute, insulin 0.1 IU/kg (combination: + 100 mg/kg ε-amino-caproic acid)) is listed as 17.3 ± 2.94 μU/ml; in data set [4] (60th minute, insulin 1.0 IU/kg (combination: + 100 mg/kg ε-amino-caproic acid)), 17.1 ± 2.06 μU/ml. Moreover, in the data set with α-chymotrypsin, the insulin degraded result was “more than 80%”.
With `NCCCCCC(=O)O` [ε-amino-caproic acid, reference compound], the Blood sugar in data set [1] (15-minute values, 1 g/kg ε-amino-caproic acid alone) came to 5.43 ± 0.55 mmol/L; in data set [1] (60-minute values, 1 g/kg ε-amino-caproic acid alone), 5.37 ± 0.15 mmol/L; in data set [3] (15th minute, 100 mg/kg ε-amino-caproic acid alone) it was 6.9 ± 1.41 mmol/L; in data set [3] (60th minute, 100 mg/kg ε-amino-caproic acid alone), 7.3 ± 0.95 mmol/L.
